The results in this text go back to ChEMBL document CHEMBL5316369, “From the Spectroscopic Reassessment of Authentic Alkaloid Samples to the Molecular Networking-Guided Discovery of Criophylline-Related Analogues from Callichilia inaequalis” (J Nat Prod, 2023).

Usually IC50 stands for the concentration needed to halve the response being measured.

The test system of the test is Plasmodium falciparum. Briefly: Antiparasitic activity against chloroquine-resistant Plasmodium falciparum FcB1 assessed as inhibition of parasite growth incubated for 24 hrs by liquid scintillation spectrometer analysis. The test is classed as functional, organism-based. The settings on record: FcB1, 24 h.
Consider `CC[C@@]12CC[C@@]34Nc5ccc([C@@H]6[C@H]7O[C@H]7[C@]7(CC)CC(C(=O)OC)=C8Nc9ccccc9[C@@]89CCN6[C@@H]79)cc5[C@@H]3CCN(C[C@H](O)[C@H]1O)[C@@H]24`, for which the IC50 amounted to 2.9 µM.

In the case of `CC[C@@]12CC[C@@]34Nc5ccc([C@@H]6[C@H]7O[C@H]7[C@]7(CC)CC(C(=O)OC)=C8Nc9ccccc9[C@@]89CCN6[C@@H]79)cc5[C@@H]3CCN(C[C@H]3O[C@H]31)[C@@H]24`, the 50% inhibitory concentration (IC50) was 54.5 µM.

On to `CC[C@@]12CC[C@@]34Nc5ccc([C@@H]6[C@H]7O[C@H]7[C@]7(CC)CC(C(=O)OC)=C8Nc9ccccc9[C@@]89CCN6[C@@H]79)cc5[C@@H]3CCN(C[C@H](OS(=O)(=O)O)[C@H]1O)[C@@H]24`, for which the IC50 was found to be 14.3 µM.
